According to the supplement of paper PMC7661543:
± gives the standard deviation of the averaged measurements.

What was measured:
Test in all cases: relative cell number vs DMSO control (72 h) (% of DMSO); higher = less growth inhibition (more cells)
Settings in all cases: sgRNA knockout: sgNT
ZR-75-1 = tested on: ZR-75-1
Experimental: (§1)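 QMAP-Seq: a pool of 5 breast cancer cell lines (ZR-75-1, SKBR3, HCC-38, MDA-MB-231, BT-20), each carrying 12 doxycycline-inducible Cas9 sgRNA perturbations (11 knockouts plus non-targeting sgNT), was treated with compounds for 72 h at four 10-fold doses (10 nM-10 uM or 1 nM-1 uM range). Barcodes were amplified and sequenced, and cell number was interpolated from 293T spike-in standard curves. The result is expressed as % of the median of DMSO wells. Two biological replicates.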

MDA-MB-231 = tested on: MDA-MB-231
Experimental: as §1

HCC-38 = tested on: HCC-38
Experimental: as §1

BT-20 = tested on: BT-20
Experimental: as §1

SKBR3 = tested on: SKBR3
Experimental: as §1

In the case of `O=c1[nH]cc(F)c(=O)[nH]1` [5-Fluorouracil], the relative cell number (ZR-75-1; 10 nM) is reported as 103 ± 28, the relative cell number (ZR-75-1; 100 nM) is reported as 83.2 ± 13 and the relative cell number (ZR-75-1; 1000 nM) is reported as 51.6 ± 1.8. The relative cell number (ZR-75-1; 10000 nM) was 41 ± 11, the relative cell number (MDA-MB-231; 10 nM) was 86.6 ± 16 and the relative cell number (MDA-MB-231; 100 nM) was 113 ± 28. It also gave a relative cell number (MDA-MB-231; 1000 nM) of 119 ± 16, a relative cell number (MDA-MB-231; 10000 nM) of 49.2 ± 6.5 and a relative cell number (HCC-38; 10 nM) of 95.2 ± 6.8. The relative cell number (HCC-38; 100 nM) was 121 ± 15, the relative cell number (HCC-38; 1000 nM) was 107 ± 21 and the relative cell number (HCC-38; 10000 nM) was 66.2 ± 6.2. It also gave a relative cell number (BT-20; 10 nM) of 115 ± 7.9, a relative cell number (BT-20; 100 nM) of 110 ± 3.4 and a relative cell number (BT-20; 1000 nM) of 78.4 ± 7. It also gave a relative cell number (BT-20; 10000 nM) of 57.9 ± 2.7, a relative cell number (SKBR3; 10 nM) of 97.9 ± 14 and a relative cell number (SKBR3; 100 nM) of 79.7 ± 19. The relative cell number (SKBR3; 1000 nM) was 65.4 ± 18 and the relative cell number (SKBR3; 10000 nM) was 17.5 ± 3.4.
`S=c1nc[nH]c2nc[nH]c12` [6-Mercaptopurine] was tested, and the relative cell number (ZR-75-1; 10 nM) was 100 ± 55, the relative cell number (ZR-75-1; 100 nM) was 66.5 ± 5.7 and the relative cell number (ZR-75-1; 1000 nM) was 100 ± 59. For the same compound, the relative cell number (ZR-75-1; 10000 nM) was 55.5 ± 22, the relative cell number (MDA-MB-231; 10 nM) was 120 ± 2.9 and the relative cell number (MDA-MB-231; 100 nM) was 79.8 ± 1.3. It also gave a relative cell number (MDA-MB-231; 1000 nM) of 60.6 ± 15, a relative cell number (MDA-MB-231; 10000 nM) of 63.5 ± 7.8 and a relative cell number (HCC-38; 10 nM) of 99.6 ± 7. For the same compound, the relative cell number (HCC-38; 100 nM) was 99.7 ± 5.1, the relative cell number (HCC-38; 1000 nM) was 81.3 ± 10 and the relative cell number (HCC-38; 10000 nM) was 61.3 ± 2.1. For the same compound, the relative cell number (BT-20; 10 nM) was 97.8 ± 13, the relative cell number (BT-20; 100 nM) was 101 ± 4.8 and the relative cell number (BT-20; 1000 nM) was 85.3 ± 6. It also gave a relative cell number (BT-20; 10000 nM) of 62.7 ± 4.4, a relative cell number (SKBR3; 10 nM) of 112 ± 11 and a relative cell number (SKBR3; 100 nM) of 83.1 ± 39. For the same compound, the relative cell number (SKBR3; 1000 nM) was 78.3 ± 21 and the relative cell number (SKBR3; 10000 nM) was 48.4 ± 25.
`Cc1sc2c(c1C)C(c1ccc(Cl)cc1)=N[C@@H](CC(=O)OC(C)(C)C)c1nnc(C)n1-2` [(+)-JQ1] gave a relative cell number (ZR-75-1; 10 nM) of 98.5 ± 22, a relative cell number (ZR-75-1; 100 nM) of 122 ± 50 and a relative cell number (ZR-75-1; 1000 nM) of 86.2 ± 21. It also gave a relative cell number (ZR-75-1; 10000 nM) of 49.4 ± 1.2, a relative cell number (MDA-MB-231; 10 nM) of 109 ± 30 and a relative cell number (MDA-MB-231; 100 nM) of 99.7 ± 4. For the same compound, the relative cell number (MDA-MB-231; 1000 nM) was 105.4 ± 0.35, the relative cell number (MDA-MB-231; 10000 nM) was 50.7 ± 18 and the relative cell number (HCC-38; 10 nM) was 104 ± 4.2. For the same compound, the relative cell number (HCC-38; 100 nM) was 112 ± 33, the relative cell number (HCC-38; 1000 nM) was 93.2 ± 1.9 and the relative cell number (HCC-38; 10000 nM) was 65.3 ± 1.1. The relative cell number (BT-20; 10 nM) was 99.3 ± 17, the relative cell number (BT-20; 100 nM) was 108 ± 1.9 and the relative cell number (BT-20; 1000 nM) was 108 ± 4.7. It also gave a relative cell number (BT-20; 10000 nM) of 93.5 ± 4, a relative cell number (SKBR3; 10 nM) of 102 ± 17 and a relative cell number (SKBR3; 100 nM) of 119 ± 21. It also gave a relative cell number (SKBR3; 1000 nM) of 91.5 ± 2.7 and a relative cell number (SKBR3; 10000 nM) of 62.6 ± 3.5.
In the case of `CN(C)CC[C@H](CSc1ccccc1)Nc1ccc(S(=O)(=O)NC(=O)c2ccc(N3CCN(Cc4ccccc4-c4ccc(Cl)cc4)CC3)cc2)cc1[N+](=O)[O-]` [ABT737], the relative cell number (ZR-75-1; 10 nM) is reported as 74.8 ± 17, the relative cell number (ZR-75-1; 100 nM) is reported as 117 ± 40 and the relative cell number (ZR-75-1; 1000 nM) is reported as 124 ± 25. It also gave a relative cell number (ZR-75-1; 10000 nM) of 73.9 ± 11, a relative cell number (MDA-MB-231; 10 nM) of 96.3 ± 18 and a relative cell number (MDA-MB-231; 100 nM) of 102 ± 21. It also gave a relative cell number (MDA-MB-231; 1000 nM) of 90.4 ± 30, a relative cell number (MDA-MB-231; 10000 nM) of 69.4 ± 16 and a relative cell number (HCC-38; 10 nM) of 104 ± 3.7. For the same compound, the relative cell number (HCC-38; 100 nM) was 84 ± 12, the relative cell number (HCC-38; 1000 nM) was 88.2 ± 4.7 and the relative cell number (HCC-38; 10000 nM) was 62.5 ± 18. The relative cell number (BT-20; 10 nM) was 93.2 ± 26, the relative cell number (BT-20; 100 nM) was 97.5 ± 10 and the relative cell number (BT-20; 1000 nM) was 94.8 ± 13. The relative cell number (BT-20; 10000 nM) was 69.2 ± 5.1, the relative cell number (SKBR3; 10 nM) was 84.5 ± 11 and the relative cell number (SKBR3; 100 nM) was 98.2 ± 4.7. For the same compound, the relative cell number (SKBR3; 1000 nM) was 85.7 ± 9.8 and the relative cell number (SKBR3; 10000 nM) was 93.31 ± 0.55.
In the case of `c1cc(Nc2cc(C3CC3)[nH]n2)nc(Nc2ccc3nc[nH]c3c2)n1` [APY29], the relative cell number (ZR-75-1; 10 nM) is reported as 119 ± 26, the relative cell number (ZR-75-1; 100 nM) is reported as 74 ± 39 and the relative cell number (ZR-75-1; 1000 nM) is reported as 23.6 ± 1.6. It also gave a relative cell number (ZR-75-1; 10000 nM) of 10.7 ± 9.5, a relative cell number (MDA-MB-231; 10 nM) of 109 ± 5.4 and a relative cell number (MDA-MB-231; 100 nM) of 52.8 ± 4.2. It also gave a relative cell number (MDA-MB-231; 1000 nM) of 17.1 ± 3.7, a relative cell number (MDA-MB-231; 10000 nM) of 10.7 ± 3.8 and a relative cell number (HCC-38; 10 nM) of 91.3 ± 16. For the same compound, the relative cell number (HCC-38; 100 nM) was 64.3 ± 3.1, the relative cell number (HCC-38; 1000 nM) was 26.6 ± 2.5 and the relative cell number (HCC-38; 10000 nM) was 23.3 ± 0.34. It also gave a relative cell number (BT-20; 10 nM) of 120 ± 4.3, a relative cell number (BT-20; 100 nM) of 79.9 ± 16 and a relative cell number (BT-20; 1000 nM) of 88.3 ± 10. For the same compound, the relative cell number (BT-20; 10000 nM) was 40.7 ± 5.9, the relative cell number (SKBR3; 10 nM) was 110 ± 9 and the relative cell number (SKBR3; 100 nM) was 40.6 ± 1.2. The relative cell number (SKBR3; 1000 nM) was 12.5 ± 6.6 and the relative cell number (SKBR3; 10000 nM) was 5.99 ± 1.9.
`Clc1ccc(C2(c3ccc(-c4cn[nH]c4)cc3)CCNCC2)cc1` [AT7867] showed a relative cell number (ZR-75-1; 10 nM) of 61.2 ± 35, a relative cell number (ZR-75-1; 100 nM) of 64.4 ± 20 and a relative cell number (ZR-75-1; 1000 nM) of 66.2 ± 5.2. For the same compound, the relative cell number (ZR-75-1; 10000 nM) was 11.1 ± 1.7, the relative cell number (MDA-MB-231; 10 nM) was 59.5 ± 17 and the relative cell number (MDA-MB-231; 100 nM) was 84.9 ± 1.7. The relative cell number (MDA-MB-231; 1000 nM) was 35.9 ± 6, the relative cell number (MDA-MB-231; 10000 nM) was 14.5 ± 2.1 and the relative cell number (HCC-38; 10 nM) was 91.3 ± 5.8. For the same compound, the relative cell number (HCC-38; 100 nM) was 64.1 ± 14, the relative cell number (HCC-38; 1000 nM) was 45.4 ± 2.5 and the relative cell number (HCC-38; 10000 nM) was 50.5 ± 2.3. The relative cell number (BT-20; 10 nM) was 79.5 ± 20, the relative cell number (BT-20; 100 nM) was 108 ± 32 and the relative cell number (BT-20; 1000 nM) was 77.8 ± 12. The relative cell number (BT-20; 10000 nM) was 24.8 ± 5.2, the relative cell number (SKBR3; 10 nM) was 70.8 ± 4.4 and the relative cell number (SKBR3; 100 nM) was 102 ± 5. It also gave a relative cell number (SKBR3; 1000 nM) of 59.38 ± 0.082 and a relative cell number (SKBR3; 10000 nM) of 10.8 ± 2.8.
